Ends that are not written are not given here.
Key:
ACE [1] = settings: cited from earlier work; for ACE-inhibitory activity in words: 30 (ADMIET, QTPHQ, ELHPQ), ref 27 (RTVFDGEL, RADVFNPR); for IC50: read-out: Inhibitory capacity on ACE (IC50)
Text: The results of ultra-high-performance liquid chromatography and quantum-ultra mass spectrometric determination of BAAH-4-C are shown in Table 1 and Figure 4. Five oligopeptides, […]([…]), Lys-Thr-Glu-Thr-Gln-Pro (KTETQP), […]([…]), […]([…]), and Thr-Cys-Gly-Ala-Ser (TCGAS) were obtained. However, only […] offered potential antihypertension based on the vector machine software score (1.35) calculated by the database AHTpin [28]. […] As shown in the Lineweaver–Burk diagram of ACE, the Km increased with the increasing […] dose, but the maximum velocity (Vmax) decreased when the […] dose increased, which was the typical effect of noncompetitive inhibitors. Peptides such as […] an ... || To the best of our knowledge, this is the first study to simultaneously investigate the capacities of bitter almond albumin peptides to inhibit ACE and bind with zinc ions. Previous studies evidenced that thermolysin could quickly cleave the amide bonds linked with hydrophobic amino acid residues, with the released hydrophobic amino acid residues playing an important role in ACE inhibition; whereas papain cleaves multiple sites of polypeptide chains, especially peptide bonds linking with acidic amino acid residues (Glu and Asp), Arg, and aromatic amino acids which was helpful for the release o ... || (+ 2 further places)

SHR = settings: cited from earlier work
Text: Zinc chelation may change the coordination of peptides toward ACE, resulting in lower ACE-inhibitory activity and antihypertension.

[2] = Chelating ability toward zinc ions, 4-(β-Pyridinazo)-resorcinol method; assay type: physicochemical; settings: 0.75 mmol·L^−1 ZnSO4 in HEPES-KOH buffer, peptide solution 0.8 mg·mL^−1, 15 min, 25 °C; repeated three or more times
Experimental: (§1) In short, 0.75 mmol·L^−1 of ZnSO4 (dissolved in 0.2 mmol·L^−1 of HEPES-KOH buffer) and 10 mmol·L^−1 of 1,4-Dithiothreitol were added into a glass tube. The tube was incubated in the THZ-82AB thermostatic oscillator (195 r·min^−1 and 25 °C). Five minutes later, the zinc concentration in the glass tube was measured and read as C0. Next, the BAAH peptides aqueous solution (0.8 mg·mL^−1) was added and the mixture was continuously shaken for another 15 min. Then, the zinc concentration in the glass tube was measured and read as Ct. The chelating ability of BAAH peptides toward zinc ions was calculated as follows, and ethylenediamine tetraacetic acid (EDTA) was used as the positive control. (1) Chelating ability towards zinc ions (mg·g^−1) = (C0−Ct) × V/m where V and m represent the volume of the reaction solution (mL) and the mass weight of BAAH peptides (g), respectively.

ACE [3] = test: ACE inhibition after simulated gastrointestinal digestion (pepsin, then pancreatin); assay type: in vitro ADME; settings: pepsin pH 2.00, 90 min, then pancreatin pH 7.00, 150 min, 37 °C; p > 0.5 as printed
Experimental: The N-hippuryl-L-histidyl-L-leucine method was utilized for the determination of the inhibiting capacity of BAAH peptides toward ACE [30]. In a glass test tube, 0.2 mL of ACE solution (dissolved in boric acid buffer, pH 8.3) and 0.2 mL of BAAH peptide aqueous solution (1 mg·mL^−1) were added. The mixture in the glass tube was shaken in a water bath at 143 r·min^−1 and 37 °C. Ten minutes later, 0.65 mL of N-hippuryl-L-histidyl-L-leucine (5 mmol·L^−1, dissolved in boric acid buffer, pH 8.3) was added. After continuously shaking for 1 h, 0.75 mL of dilute hydrochloric acid was added into the tube. Next, hippuric acid produced in the reaction solution was extracted by ethyl acetate (1.25 mL). The hippuric acid solution (the supernatant) was sucked out with a pipette (DG-1, Dragon TopPette, Beijing, China) and heated at 70 °C to evaporate the ethyl acetate. The residual hippuric acid was resolved in distilled water, and its absorbance at 228 nm was read. The inhibition capacity of BAAH peptides against ACE was the percentage of the absorbance reduction value at 228 nm to the absorbance of the control group (without BAAH peptide). The concentration of BAAH peptides was defined as IC50 when the activity of ACE was inhibited by half. Captopril was used as the positive control. […]

[4] = Zinc-chelating ability after simulated gastrointestinal digestion (pepsin, then pancreatin); assay type: in vitro ADME; settings: 5 mg/mL peptide; pepsin pH 2.00, 90 min, then pancreatin pH 7.00, 150 min, 37 °C; then 4-(β-Pyridinazo)-resorcinol method
Experimental: as §1
In a stirring (115 r·min^−1) water bath at 37 °C, the BAAH peptides’ aqueous solution (5 mg/mL, 10 mL) was added into a glass test tube, and the pH value was adjusted to 2.00 ± 0.05 with dilute hydrochloric acid solution (0.5 mol·L^−1). […] Afterward, both the chelating ability toward zinc ion, and the inhibition activity of BAAH peptides against ACE were determined using the 4-(β-Pyridinazo)-resorcinol method and N-hippuryl-L-histidyl-L-leucine method, respectively. […]

ACE [5] = molecular target: T1, ACE (Oryctolagus cuniculus, UniProt P12822); test: ACE inhibition, N-hippuryl-L-histidyl-L-leucine method; assay type: biochemical; settings: synthesized peptide; HHL 5 mmol·L^−1, boric acid buffer pH 8.3, 37 °C, 10 min pre-incubation, 1 h reaction, absorbance at 228 nm; read-out: Inhibitory effect against ACE (IC50)
T1 construct: purchased Sigma (St. Louis, MO, USA)
T1 sequence (P12822 34-1310): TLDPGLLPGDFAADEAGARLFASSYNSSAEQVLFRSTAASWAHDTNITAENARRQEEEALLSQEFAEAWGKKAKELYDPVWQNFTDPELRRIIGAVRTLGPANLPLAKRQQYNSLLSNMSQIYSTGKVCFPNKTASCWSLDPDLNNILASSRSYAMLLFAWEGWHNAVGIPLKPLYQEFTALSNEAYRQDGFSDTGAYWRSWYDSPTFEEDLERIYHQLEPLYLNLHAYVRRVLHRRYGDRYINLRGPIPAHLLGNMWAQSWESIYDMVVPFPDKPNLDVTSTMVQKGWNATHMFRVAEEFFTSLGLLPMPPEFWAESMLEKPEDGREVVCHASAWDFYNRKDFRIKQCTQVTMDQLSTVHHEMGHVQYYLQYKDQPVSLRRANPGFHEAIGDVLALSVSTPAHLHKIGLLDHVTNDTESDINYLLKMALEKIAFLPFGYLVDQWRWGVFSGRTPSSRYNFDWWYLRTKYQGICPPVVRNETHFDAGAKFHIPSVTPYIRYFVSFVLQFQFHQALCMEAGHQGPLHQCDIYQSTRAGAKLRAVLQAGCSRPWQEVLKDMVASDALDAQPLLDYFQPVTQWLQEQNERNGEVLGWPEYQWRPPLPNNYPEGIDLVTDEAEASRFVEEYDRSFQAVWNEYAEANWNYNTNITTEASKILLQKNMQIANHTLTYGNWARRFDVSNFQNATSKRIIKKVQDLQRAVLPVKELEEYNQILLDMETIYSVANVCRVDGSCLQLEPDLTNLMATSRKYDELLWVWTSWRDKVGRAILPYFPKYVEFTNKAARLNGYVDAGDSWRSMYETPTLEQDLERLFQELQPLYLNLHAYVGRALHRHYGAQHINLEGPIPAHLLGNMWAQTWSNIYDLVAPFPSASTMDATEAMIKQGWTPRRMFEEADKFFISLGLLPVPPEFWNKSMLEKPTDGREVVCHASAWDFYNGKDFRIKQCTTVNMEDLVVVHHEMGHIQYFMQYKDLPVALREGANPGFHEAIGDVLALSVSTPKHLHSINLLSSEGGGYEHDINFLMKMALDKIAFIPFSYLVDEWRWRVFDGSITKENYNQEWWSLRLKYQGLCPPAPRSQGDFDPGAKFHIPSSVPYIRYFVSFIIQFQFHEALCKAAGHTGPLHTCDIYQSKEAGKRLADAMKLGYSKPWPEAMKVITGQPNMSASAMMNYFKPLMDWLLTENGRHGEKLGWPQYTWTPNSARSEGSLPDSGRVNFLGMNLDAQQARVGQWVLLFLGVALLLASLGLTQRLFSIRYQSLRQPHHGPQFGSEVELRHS
Experimental: The N-hippuryl-L-histidyl-L-leucine method was utilized for the determination of the inhibiting capacity of BAAH peptides toward ACE [30]. In a glass test tube, 0.2 mL of ACE solution (dissolved in boric acid buffer, pH 8.3) and 0.2 mL of BAAH peptide aqueous solution (1 mg·mL^−1) were added. The mixture in the glass tube was shaken in a water bath at 143 r·min^−1 and 37 °C. Ten minutes later, 0.65 mL of N-hippuryl-L-histidyl-L-leucine (5 mmol·L^−1, dissolved in boric acid buffer, pH 8.3) was added. After continuously shaking for 1 h, 0.75 mL of dilute hydrochloric acid was added into the tube. Next, hippuric acid produced in the reaction solution was extracted by ethyl acetate (1.25 mL). The hippuric acid solution (the supernatant) was sucked out with a pipette (DG-1, Dragon TopPette, Beijing, China) and heated at 70 °C to evaporate the ethyl acetate. The residual hippuric acid was resolved in distilled water, and its absorbance at 228 nm was read. The inhibition capacity of BAAH peptides against ACE was the percentage of the absorbance reduction value at 228 nm to the absorbance of the control group (without BAAH peptide). The concentration of BAAH peptides was defined as IC50 when the activity of ACE was inhibited by half.

Substance: ADMIET [peptide identified in Lepidium meyenii]
- ACE-inhibitory activity in words (ACE [1]): high ACE-inhibitory activities

Substance: EKTFLLYSCPHR [peptide identified from camel milk]
- IC50 (ACE [1]): 312 µM

Substance: ELHPQ [peptide derived from canary seeds]
- ACE-inhibitory activity in words (ACE [1]): high ACE-inhibitory activities

Substance: FMRWRDRFL [peptide isolated from tombul hazelnut]
- IC50 (ACE [1]): 260 µM

Substance: GYGYNY [camellia peptide]
- Antihypertensive effects on SHR (SHR): dose-dependent antihypertensive effects
- Effect of the addition of zinc ions on antihypertension (SHR): reduce

Substance: HLNVVHEN [peptide identified from walnut protein]
- ACE inhibitory pattern (ACE [1]): noncompetitive

Substance: KTETQP [KTETQP]
- Chelating ability toward zinc ions [2]: 19.30 ± 1.46 e mg·g^−1

Substance: KYPHVF [symbiotic peptide]
- ACE inhibition ability after zinc chelation (ACE [1]): not significantly reduced

Substance: LVRYYLLVR [peptide from hazelnut protein]
- ACE inhibitory pattern (ACE [1]): noncompetitive

Substance: LYSPLLKYFD [peptide from rice bran]
- Antihypertensive effects on SHR (SHR): dose-dependent antihypertensive effects
- Effect of the addition of zinc ions on antihypertension (SHR): reduce

Substance: PGSGCAGTDL [called Mung bean-derived in b48]
- Antihypertensive effects on SHR (SHR): dose-dependent antihypertensive effects
- Effect of the addition of zinc ions on antihypertension (SHR): reduce
- ACE inhibitory pattern (ACE [1]): noncompetitive

Substance: QPPAAAAAAGAG
- Chelating ability toward zinc ions [2]: 1.14 ± 0.01 g mg·g^−1

Substance: QTPHQ [peptide derived from canary seeds]
- ACE-inhibitory activity in words (ACE [1]): high ACE-inhibitory activities

Substance: RADVFNPR [peptide derived from palm kernel glutelin-1]
- ACE-inhibitory activity in words (ACE [1]): excellent ability to restrain ACE

Substance: RPPSEDEDQE
- Zinc-chelating ability and ACE-inhibitory capacity after hydrolysis of gastrointestinal proteases, versus untreated peptide (ACE [3]): not significantly reduced
- Chelating ability toward zinc ions after gastrointestinal digestion [4]: 18.55 ± 0.95 mg/g
- IC50 (ACE [5]): 206 µM

Substance: RTVFDGEL [peptide derived from palm kernel glutelin-1]
- ACE-inhibitory activity in words (ACE [1]): excellent ability to restrain ACE
